The values that follow come from ChEMBL document CHEMBL5375963, “Discovery of a First-in-Class Small-Molecule Ligand for WDR91 Using DNA-Encoded Chemical Library Selection Followed by Machine Learning” (J Med Chem, 2023).

The source made the active and inactive calls. The rule behind the calls is not given here.

In assay [1] the target is T1, WD repeat-containing protein 91 (Homo sapiens, UniProt A4D1P6).
T1 sequence (A4D1P6 whole entry): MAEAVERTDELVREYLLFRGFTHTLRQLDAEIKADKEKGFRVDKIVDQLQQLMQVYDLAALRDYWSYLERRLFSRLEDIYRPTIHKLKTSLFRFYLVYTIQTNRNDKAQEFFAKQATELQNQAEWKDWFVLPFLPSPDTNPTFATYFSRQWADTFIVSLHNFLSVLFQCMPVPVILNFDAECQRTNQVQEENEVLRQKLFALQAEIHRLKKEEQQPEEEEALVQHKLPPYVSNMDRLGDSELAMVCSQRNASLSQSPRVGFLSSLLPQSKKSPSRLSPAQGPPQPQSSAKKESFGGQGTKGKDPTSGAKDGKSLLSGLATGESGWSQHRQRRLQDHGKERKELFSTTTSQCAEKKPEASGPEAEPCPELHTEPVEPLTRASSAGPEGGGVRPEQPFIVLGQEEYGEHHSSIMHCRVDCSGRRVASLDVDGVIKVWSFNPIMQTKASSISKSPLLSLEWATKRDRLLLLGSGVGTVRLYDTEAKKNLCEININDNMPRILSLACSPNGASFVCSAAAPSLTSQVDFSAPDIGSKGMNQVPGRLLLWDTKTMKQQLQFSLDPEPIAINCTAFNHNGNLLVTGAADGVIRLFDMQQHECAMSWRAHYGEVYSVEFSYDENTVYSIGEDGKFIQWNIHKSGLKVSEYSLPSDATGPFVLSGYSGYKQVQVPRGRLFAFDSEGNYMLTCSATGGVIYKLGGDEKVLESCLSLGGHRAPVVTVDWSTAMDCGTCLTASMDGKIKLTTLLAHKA
The assay can be described thus: (§1) Binding affinity to C-terminal His6-tagged truncated WDR91 (unknown origin) (P392 to A747 residues) expressed in baculovirus-infected Sf9 cells assessed as dissociation constant incubated for 72 to 96 hrs by SPR analysis. (SPR reads the build-up and loss of mass on a sensor chip optically.)

Assay [2] has as its target T2, WD repeat-containing protein 91 (Homo sapiens) (UniProt A4D1P6).
T2 sequence (whole entry): T1 sequence (A4D1P6 whole entry)
The assay can be described thus: Binding affinity to C-terminal His6-tagged truncated WDR91 (unknown origin) (P392 to A747 residues) expressed in baculovirus-infected Sf9 cells assessed as thermal stabilization by measuring change in melting temperature incubated for 2 hrs by differential scanning fluorimetry analysis.

In assay [3] the target is T2, WD repeat-containing protein 91 (Homo sapiens). The assay can be described thus: Binding affinity to C-terminal His6-tagged truncated WDR91 (unknown origin) (P392 to A747 residues) expressed in baculovirus-infected Sf9 cells assessed as covalent adduct formation incubated for 2 hrs by LC-MS analysis.
The target is the same in assay [4]. The assay is described as follows: Binding affinity to C-terminal His6-tagged truncated WDR91 (unknown origin) (P392 to A747 residues) expressed in baculovirus-infected Sf9 cells assessed as maximum response incubated for 2 hrs relative to control.
For assay [5] the target is unchanged. The description is as §1. Conditions: time 72-96 hrs.

The term Kd denotes the free concentration of one partner at which half of the binding sites on the other are occupied at equilibrium, for simple one-to-one binding. In the case of `O=C(NC1(c2ccc(Cl)cc2)COC1)c1ccc(C2(O)COC2)cc1`, the Kd in assay [1] is 20 µM.

Take `Nc1ncnc2ccc(C(=O)NC3(c4ccc(Cl)cc4)COC3)cc12`: the Kd in assay [1] stood at 42 µM. For `NC(=O)C1CCCN(c2ccc(C(=O)NC(c3ccc(Cl)cc3)C3CC3)cc2)C1` (stereo not drawn), in assay [1], the Kd is 37 µM.

With `O=C(NC1(c2ccc(Cl)cc2)COC1)c1ccc(CN2CCCC2=O)cc1`, the Kd in assay [1] stood at 11 µM.

Regarding `CC(=O)NCc1ccc(C(=O)NC2(c3ccc(Cl)cc3)COC2)cc1`, the Kd in assay [1] was determined as 97 µM. Same read-out and setting: with `Cc1cn2cc(C(=O)NC3(c4ccc(Cl)cc4)COC3)sc2n1` the figure was 11 µM.

Turning to `NC(=O)C1CCCN(c2ccc(C(=O)NC(CCO)c3ccc(Cl)cc3)cc2)C1` (stereo not drawn), in assay [1], the Kd worked out at 14 µM.

By ΔTm is commonly meant the change in melting temperature against a reference sample. As for `C=CC(=O)N1CCCc2c(C(=O)NC3(c4ccc(Cl)cc4)COC3)cccc21`, the ΔTm in assay [2] stood at 4 °C. The outcome in assay [3] was Active. The Kd in assay [1] turned out to be 36 µM. The Rmax in assay [4] came out at 53%. Consider `C=CC(=O)N1CCCc2c(C(=O)NC(c3ccc(Cl)cc3)C3CC3)cccc21` (stereo not drawn), for which, in assay [2], the ΔTm is 4 °C. Besides, the result in assay [3] was Active. Also, the Kd in assay [1] is 43 µM. Moreover, the Rmax in assay [4] is 54%. Take `O=C1Cc2c(cccc2C(=O)NC2(c3ccc(Cl)cc3)COC2)N1`: the Kd in assay [1] is 22 µM. As for `C=CC(=O)Nc1ccc(CC(=O)NC2(c3ccccc3)COC2)cc1`, the result in assay [3] and in assay [5] was inactive. Also, the Rmax result in assay [4] is “inactive”.

For the compound `O=C(c1ccc(N2CCC(O)C2)cc1)N1CC(O)(c2ccc(Cl)cc2)C1` (stereo not drawn), the Kd in assay [1] turned out to be 16 µM.

`O=C(NC1(c2ccc(Cl)cc2)COC1)c1ccc(-c2cc[nH]n2)s1`: the Kd in assay [1] stood at 8 µM. Take `O=C(NC(CCO)c1ccc(Cl)cc1)c1ccc(CN2CCCC2=O)cc1` (stereo not drawn): the Kd in assay [1] was 99 µM. On to `C=CC(=O)N1CCCc2c(C(=O)NC(c3ccc(F)cc3)C3CCCCC3)cccc21` (stereo not drawn), for which the result in assay [3] and in assay [5] was inactive. Further, the Rmax result in assay [4] was “inactive”.

For the compound `O=C(NC(CCO)c1ccc(Cl)cc1)c1ccc(N2CCC(O)C2)cc1` (stereo not drawn), the Kd in assay [1] was found to be 15 µM.

In the case of `O=C(NC1(c2ccc(Cl)cc2)COC1)c1ccc(N2CCC(O)CC2)cc1`, in assay [1], the Kd is 6 µM. The same measure, in the same setting: the result for `O=C(NC1(c2ccc(Cl)cc2)COC1)c1ccc2snnc2c1` reads 14 µM.
